Assay results published in patent US20050009151A1, “Methods for the stereospecific and enantiomeric enrichment of beta-amino acids” (Pharmacia Corporation, priority 2003, published 2005).

Columns and labels:
[1] = system: α-alanine aminotransferase; conditions: J. Biochem 81, 1375-1381, 1977; cited from earlier work
[2] = system: gamma aminobutyrate transaminase; conditions: J. Biochem 81, 1375-1381, 1977; cited from earlier work
[3] = system: Alcaligenes eutrophus L-β-aminotransferase; experiment: Amino donor screen, production of β-phenylalanine from 3-keto-3-phenylpropionic acid; assay type: biochemical; conditions: 200 mM amino donor, pyruvate decarboxylase, 24 hours
Procedure: The assays contained: 0.1-0.3 mg/ml protein, 10 mg/ml keto acceptor, 200 mM amino donor, 0.1 mM pyridoxal phosphate, and 100 mM potassium phosphate, at pH 8.0. 0.1 units of pyruvate decarboxylase was included to prevent the reversible reaction from reaching equilibrium. The reactions were run at 37° C. with gentle stirring for 24 hours. At 24 hours reaction time, 0.1 ml samples were withdrawn, acidified with addition of 0.1 ml 0.1N HCl, and centrifuged. The supernatant solution was collected into HPLC sample vials. Conversion of amino acid to the corresponding ketone was quantified using reverse phase HPLC. Amino donors screened were (L)-alanine, (D)-alanine, and β-alanine.

[4] = system: β-aminotransferase from Alcaligenes eutrophus; experiment: Synthesis of β-amino acid from β-keto acid with cell lysate from Alcaligenes eutrophus; assay type: biochemical; conditions: approximately 45 mM substrate, approximately 84 mM alanine, 47 hours
Procedure: A buffer consisting of 0.3M Tricine, 15 mM MgSO4, enough pyridoxal phosphate to impart a pale yellow color and 0.3M sodium glutamate (for deamination reactions) or 0.3 M 2-ketoglutarate monopotassium salt (for synthesis reactions) was prepared.
[…] Reactions were typically run at 1 ml scale with gentle shaking at 26° C.
10 ul of 2N HCl was added to a plastic screw capped vial and 90ul of sample was then added. The pH of the mixture confirmed to be below 4 and the mixture was centrifuged in a microcentrifuge at maximum speed for about 2 minutes to remove precipitated materials.
Samples were derivatized using Marfey's reagent, N•-(2,4-dinitro-5-fluorophenyl)-L-alaninamide. A stock solution of 10 mg/mL in acetone of this reagent was prepared. Either 20 or 40 ul of bioconversion sample was added to 20 ul 1.3 M KHCO3. To this was added 80 ul of the stock reagent solution, the vial sealed tightly, and heated at 70° C. for 10 minutes. As needed, after cooling to room temperature, the heated samples were centrifuged to remove solids. The supernatants were analyzed using an Eclipse XDB-C8 column, 4.6×150 mm, eluting with methanol gradient in water, from 50% methanol to 100% methanol. Both solvents were acidified with 0.1% trifluoroacetic acid. […]

Row | SMILES | activity on substrate [1] | activity on substrate [2] | utilized by the enzyme as an amino donor in the production of β-phenylalanine [3] | 2-fluoro-beta-phenylalanine formed, using beta-phenylalanine as standard [4]
1 | NCCCC(=O)O [gamma aminobutyrate] | 43 | 100 | – | –
2 | C[C@H](N)C(=O)O [(L)-alanine] | – | – | utilized by the enzyme as an amino donor | –
3 | NCCC(=O)O [β-alanine] | 100 | 3 | Only (L)-alanine was utilized by the enzyme | –
4 | C[C@@H](N)C(=O)O [(D)-alanine] | – | – | Only (L)-alanine was utilized by the enzyme | –
5 | O=C(O)CC(=O)c1ccccc1F [3-(2-Fluorobenzene)beta-oxopropanoic acid] | – | – | – | approximately 0.1 mg/mL
